The assay concerns the target T1, ROMK (Kir1.1) channel (Homo sapiens, UniProt P48048).
T1 sequence (P48048 1-391): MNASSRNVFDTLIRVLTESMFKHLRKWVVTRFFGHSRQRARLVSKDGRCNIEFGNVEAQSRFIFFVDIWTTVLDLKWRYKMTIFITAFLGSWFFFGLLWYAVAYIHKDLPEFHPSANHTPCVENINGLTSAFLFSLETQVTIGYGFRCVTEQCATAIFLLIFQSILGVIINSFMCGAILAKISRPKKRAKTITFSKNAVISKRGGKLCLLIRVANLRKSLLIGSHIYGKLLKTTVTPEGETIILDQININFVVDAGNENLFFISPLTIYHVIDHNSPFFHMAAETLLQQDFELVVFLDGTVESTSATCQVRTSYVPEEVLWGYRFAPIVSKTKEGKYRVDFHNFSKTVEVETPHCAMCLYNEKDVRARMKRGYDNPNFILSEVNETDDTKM
As to the kind of experiment: Thallium Flux Assay. In kind it is cell-based. Here is the method:
A Thallium Flux Assay was performed on each of the final product compounds in the Examples. When the final product of an Example was an HCl salt, the salt was run in the Assay. This assay has been described previously; see, e.g., PCT Published Application WO 2013/062900.
With `CC1=C(N2CCC3(CCN(C[C@H](O)c4ccc(-n5cnnn5)cc4F)CC3)CC2)COC1=O` [Example 53, (R)-4-(9-(2-(2-fluoro-4-(1H-tetrazol-1-yl)phenyl)-2-hydroxyethyl)-3,9-diazaspiro[5.5]undecan-3-yl)-3-methylfuran-2(5H)-one], inhibition was half-maximal at 0.014 µM (IC50). This lies in the double-digit nanomolar range.

Take `Cc1c(N2CCC3(CCN(C[C@@H](O)c4ccc(-n5cnnn5)nc4)CC3)CC2)c(=O)c1=O` [Example 82, (S)-3-(9-(2-(6-(1H-tetrazol-1-yl)pyridin-3-yl)-2-hydroxyethyl)-3,9-diazaspiro[5.5]undecan-3-yl)-4-methylcyclobut-3-ene-1,2-dione]: the IC50 (usually the concentration at which inhibition is half-maximal) was 0.034 µM.

`CC1=C(N2CCC3(CCN(C[C@@H](O)c4ccc(-n5cnnn5)nc4)CC3)CC2)COC1=O` [Example 48, (S)-4-(9-(2-(6-(1H-tetrazol-1-yl)pyridin-3-yl)-2-hydroxyethyl)-3,9-diazaspiro[5.5]undecan-3-yl)-3-methylfuran-2(5H)-one] had an IC50 of 0.019 µM.

As for `Cc1c(CC(=O)N2CCC3(CC2)CCN(C2=CC(=O)OC2)CC3)ccc2c1COC2=O` [Example 105, 4-methyl-5-{2-oxo-2-[9-(5-oxo-2,5-dihydrofuran-3-yl)-3,9-diazaspiro[5.5]undec-3-yl]ethyl}-2-benzofuran-1(3H)-one], the IC50 was 0.483 µM. This IC50 is about 25-fold higher than that of the compound before.

Compound `Cc1cc(-n2cnnn2)ccc1[C@H](O)CN1CCC2(CC1)CCN(C1=CC(=O)OC1)CC2` [Example 25, (S)-4-(9-(2-hydroxy-2-(2-methyl-4-(1H-tetrazol-1-yl)phenyl)ethyl)-3,9-diazaspiro[5.5]undecan-3-yl)furan-2(5H)-one] showed an IC50 of 0.022 µM.

For `CC1=C(N2CCC3(CCN(C[C@@H](O)c4ccc(-n5cnnn5)cc4C)CC3)CC2)COC1=O` [Example 56, (S)-4-(9-(2-hydroxy-2-(2-methyl-4-(1H-tetrazol-1-yl)phenyl)ethyl)-3,9-diazaspiro[5.5]undecan-3-yl)-3-methylfuran-2(5H)-one], the IC50 worked out at 0.011 µM.

In turn, `Cc1c(N2CCC3(CCN(C[C@H](O)c4ccc(-n5cnnn5)cn4)CC3)CC2)c(=O)c1=O` [Example 87, (S)-3-(9-(2-(5-(1H-tetrazol-1-yl)pyridin-2-yl)-2-hydroxyethyl)-3,9-diazaspiro[5.5]undecan-3-yl)-4-methylcyclobut-3-ene-1,2-dione] showed an IC50 of 0.688 µM.

Consider `CC1=C(N2CCC3(CCN(C[C@H](O)c4ccc(-n5cnnn5)nc4)CC3)CC2)COC1=O` [Example 47, (R)-4-(9-(2-(6-(1H-tetrazol-1-yl)pyridin-3-yl)-2-hydroxyethyl)-3,9-diazaspiro[5.5]undecan-3-yl)-3-methylfuran-2(5H)-one], for which the IC50 came out at 0.013 µM.

For the compound `CC1=C(N2CCC3(CCN(C[C@@H](O)c4cncc(-n5cnnn5)n4)CC3)CC2)COC1=O` [Example 66, (R)-4-(9-(2-(6-(1H-tetrazol-1-yl)pyrazin-2-yl)-2-hydroxyethyl)-3,9-diazaspiro[5.5]undecan-3-yl)-3-methylfuran-2(5H)-one], the IC50 was found to be 0.11 µM.

The compound `CO[C@H]1CN(C2=C(C)C(=O)OC2)CCC12CCN(C[C@H](O)c1ccc3c(c1C)COC3=O)CC2` [Example 97, 5-{(1R)-1-hydroxy-2-[(7R)-7-methoxy-9-(4-methyl-5-oxo-2,5-dihydrofuran-3-yl)-3,9-diazaspiro[5.5]undec-3-yl]ethyl}-4-methyl-2-benzofuran-1(3H)-one] yielded an IC50 of 0.042 µM.

With `CC1=C(N2CCC3(CCN(C[C@H](O)c4ccc(-n5cnnn5)nc4C)CC3)CC2=O)COC1=O` [Example 29, (R)-9-(2-hydroxy-2-(2-methyl-6-(1H-tetrazol-1-yl)pyridin-3-yl)ethyl)-3-(4-methyl-5-oxo-2,5-dihydrofuran-3-yl)-3,9-diazaspiro[5.5]undecan-2-one], half-maximal inhibition (IC50) was put at 0.33 µM.

Compound `O=C1C=C(N2CCC3(CCN(C(=O)Cc4c(F)cc(-n5cnnn5)cc4F)CC3)CC2)CO1` [Example 100, 4-(9-{[2,6-difluoro-4-(1H-tetrazol-1-yl)phenyl]acetyl}-3,9-diazaspiro[5.5]undec-3-yl)furan-2(5H)-one] returned an IC50 of 0.408 µM. This IC50 and that of the compound before are within 1.5-fold of each other.

As for `Cc1nc(-n2cnnn2)ccc1[C@@H](O)CN1CCC2(CC1)CCN(C1=CC(=O)CC1)CC2` [Example 70, (R)-3-(9-(2-hydroxy-2-(2-methyl-6-(1H-tetrazol-1-yl)pyridin-3-yl)ethyl)-3,9-diazaspiro[5.5]undecan-3-yl)cyclopent-2-enone], the midpoint of inhibition, the IC50, lay at 0.049 µM.

`Cc1c([C@@H](O)CN2CCC3(CC2)CCN(C2=C(C4CC4)C(=O)OC2)CC3)ccc2c1COC2=O` [Example 44, (R)-5-(2-(9-(4-cyclopropyl-5-oxo-2,5-dihydrofuran-3-yl)-3,9-diazaspiro[5.5]undecan-3-yl)-1-hydroxyethyl)-4-methylisobenzofuran-1(3H)-one] yielded an IC50 of 0.017 µM. Against the preceding compound, the IC50 is about 2.9-fold lower.

On to `CCOC1OC(=O)C=C1N1CCC2(CCN(C[C@H](O)c3ccc4c(c3C)COC4=O)CC2)CC1` (stereo partly drawn) [Example 92, 5-((1R)-2-(9-(2-ethoxy-5-oxo-2,5-dihydrofuran-3-yl)-3,9-diazaspiro[5.5]undecan-3-yl)-1-hydroxyethyl)-4-methylisobenzofuran-1(3H)-one], for which the IC50 turned out to be 0.539 µM.

`CC1=C(N2CCC3(CCN(C[C@@H](O)c4cc(-n5cnnn5)ccn4)CC3)CC2)COC1=O` [Example 68, (R)-4-(9-(2-(4-(1H-tetrazol-1-yl)pyridin-2-yl)-2-hydroxyethyl)-3,9-diazaspiro[5.5]undecan-3-yl)-3-methylfuran-2(5H)-one] showed an IC50 of 0.185 µM.

Consider `CO[C@@H](CN1CCC2(CC1)CCN(c1c(C)c(=O)c1=O)CC2)c1ccc2c(c1C)COC2=O` [Example 4, (R)-3-(9-(2-methoxy-2-(4-methyl-1-oxo-1,3-dihydroisobenzofuran-5-yl)ethyl)-3,9-diazaspiro[5.5]undecan-3-yl)-4-methylcyclobut-3-ene-1,2-dione], for which the IC50 amounted to 0.23 µM.

As for `Cc1c([C@@H](O)CN2CCC3(CC2)CCN(C2=C(c4ccccc4)C(=O)OC2)CC3)ccc2c1COC2=O` [Example 41, (R)-5-(1-hydroxy-2-(9-(5-oxo-4-phenyl-2,5-dihydrofuran-3-yl)-3,9-diazaspiro[5.5]undecan-3-yl)ethyl)-4-methylisobenzofuran-1(3H)-one], half-maximal inhibition (IC50) required 0.168 µM. This IC50 and that of the compound before are within 1.5-fold of each other.

On to `CC1=C(N2CCC3(CCN(C[C@H](O)c4ccc(-n5cnnn5)nc4C)CC3)CC2)CCC1=O` [Example 74, (R)-3-(9-(2-hydroxy-2-(2-methyl-6-(1H-tetrazol-1-yl)pyridin-3-yl)ethyl)-3,9-diazaspiro[5.5]undecan-3-yl)-2-methylcyclopent-2-enone], for which the IC50 is 0.069 µM.

`Cc1cc(-n2cnnn2)ccc1[C@@H](O)CN1CCC2(CC1)CCN(C1=CC(=O)CC1)CC2` [Example 73, (R)-3-(9-(2-hydroxy-2-(2-methyl-4-(1H-tetrazol-1-yl)phenyl)ethyl)-3,9-diazaspiro[5.5]undecan-3-yl)cyclopent-2-enone] had an IC50 of 0.179 µM.

As for `O=C1C=C(N2CCC3(CCN(C[C@@H](O)c4ccc(-n5cnnn5)nc4)CC3)CC2)CO1` [Example 19, (S)-4-(9-(2-(6-(1H-tetrazol-1-yl)pyridin-3-yl)-2-hydroxyethyl)-3,9-diazaspiro[5.5]undecan-3-yl)furan-2(5H)-one], the IC50 came to 0.074 µM.

For the compound `Cc1c(CCN2CCC3(CC2)CCN(c2c(C)c(=O)c2=O)CC3)ccc2c1COC2=O` [Example 3, 3-methyl-4-(9-(2-(4-methyl-1-oxo-1,3-dihydroisobenzofuran-5-yl)ethyl)-3,9-diazaspiro[5.5]undecan-3-yl)cyclobut-3-ene-1,2-dione], the IC50 stood at 0.093 µM.

With `O=C1C=C(N2CCC3(CCN(C(=O)Cc4cnc(-n5cnnn5)cn4)CC3)CC2)CO1` [Example 106, 4-(9-{[5-(1H-tetrazol-1-yl)pyrazin-2-yl]acetyl}-3,9-diazaspiro[5.5]undec-3-yl)furan-2(5H)-one], the 50% inhibitory concentration (IC50) was 0.379 µM.

As for `CC1=C(N2CCC3(CCN(C[C@@H](O)c4ccc(-n5cnnn5)nc4C)CC3)CC2)COC1=O` [Example 46, (S)-4-(9-(2-hydroxy-2-(2-methyl-6-(1H-tetrazol-1-yl)pyridin-3-yl)ethyl)-3,9-diazaspiro[5.5]undecan-3-yl)-3-methylfuran-2(5H)-one], it took 0.038 µM to reach half-maximal inhibition (IC50).

The compound `O=C1C=C(N2CCC3(CCN(CCc4ccc5c(c4)COC5=O)CC3)CC2)CO1` [Example 1, 5-(2-(9-(5-oxo-2,5-dihydrofuran-3-yl)-3,9-diazaspiro[5.5]undecan-3-yl)ethyl)isobenzofuran-1(3H)-one] registered an IC50 of 0.017 µM.

For `CC1=C(N2CCC3(CCN(C[C@H](O)c4ccc(-n5cnnn5)cc4)CC3)CC2)COC1=O` [Example 49, (R)-4-(9-(2-(4-(1H-tetrazol-1-yl)phenyl)-2-hydroxyethyl)-3,9-diazaspiro[5.5]undecan-3-yl)-3-methylfuran-2(5H)-one], half-maximal inhibition (IC50) required 0.016 µM.

As for `Cc1nc(-n2cnnn2)ccc1[C@@H](O)CN1CCC2(CC1)CCN(C1=CC(=O)OC1)C(=O)C2` [Example 26, (R)-9-(2-hydroxy-2-(2-methyl-6-(1H-tetrazol-1-yl)pyridin-3-yl)ethyl)-3-(5-oxo-2,5-dihydrofuran-3-yl)-3,9-diazaspiro[5.5]undecan-2-one], the midpoint of inhibition, the IC50, lay at 0.048 µM.

On to `CC1=C(N2CCC3(CCN(C[C@H](O)c4ccc(-n5cnnn5)cc4C)CC3)CC2)CCC1=O` [Example 77, (R)-3-(9-(2-hydroxy-2-(2-methyl-4-(1H-tetrazol-1-yl)phenyl)ethyl)-3,9-diazaspiro[5.5]undecan-3-yl)-2-methylcyclopent-2-enone], for which the IC50 turned out to be 0.14 µM.

(Values after US9839629B2, “Inhibitors of the renal outer medullary potassium channel” (Merck Sharp & Dohme Corp., priority 2013, dated 2017).)
